# Experimental data: patent US8796305B2 (Bayer Pharma Aktiengesellschaft, priority 2012, dated 2014)
# Structures can show the parent of a compound that is named as a salt.
# Molecular target: T1, recombinant guanylate cyclase reporter cell line (Rattus norvegicus, UniProt P19686+P20595)
# T1 construct: expressed in transfected cells
# T1 sequence (P20595 1-619): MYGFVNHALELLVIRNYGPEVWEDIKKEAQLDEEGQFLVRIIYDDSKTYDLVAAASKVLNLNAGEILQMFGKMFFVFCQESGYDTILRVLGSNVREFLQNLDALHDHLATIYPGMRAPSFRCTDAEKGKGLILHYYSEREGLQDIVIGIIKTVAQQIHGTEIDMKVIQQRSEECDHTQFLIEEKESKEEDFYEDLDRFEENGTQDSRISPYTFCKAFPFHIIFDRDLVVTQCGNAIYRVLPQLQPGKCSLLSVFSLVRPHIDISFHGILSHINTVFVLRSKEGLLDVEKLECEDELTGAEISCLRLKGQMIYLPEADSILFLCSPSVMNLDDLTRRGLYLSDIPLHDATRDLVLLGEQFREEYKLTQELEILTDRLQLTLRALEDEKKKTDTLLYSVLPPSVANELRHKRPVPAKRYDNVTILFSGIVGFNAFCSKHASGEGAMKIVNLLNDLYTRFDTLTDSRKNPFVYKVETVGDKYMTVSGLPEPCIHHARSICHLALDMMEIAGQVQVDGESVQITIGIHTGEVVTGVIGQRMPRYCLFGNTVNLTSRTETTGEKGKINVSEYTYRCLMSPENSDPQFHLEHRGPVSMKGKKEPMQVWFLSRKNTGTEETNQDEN
# T1 sequence (P19686 1-690): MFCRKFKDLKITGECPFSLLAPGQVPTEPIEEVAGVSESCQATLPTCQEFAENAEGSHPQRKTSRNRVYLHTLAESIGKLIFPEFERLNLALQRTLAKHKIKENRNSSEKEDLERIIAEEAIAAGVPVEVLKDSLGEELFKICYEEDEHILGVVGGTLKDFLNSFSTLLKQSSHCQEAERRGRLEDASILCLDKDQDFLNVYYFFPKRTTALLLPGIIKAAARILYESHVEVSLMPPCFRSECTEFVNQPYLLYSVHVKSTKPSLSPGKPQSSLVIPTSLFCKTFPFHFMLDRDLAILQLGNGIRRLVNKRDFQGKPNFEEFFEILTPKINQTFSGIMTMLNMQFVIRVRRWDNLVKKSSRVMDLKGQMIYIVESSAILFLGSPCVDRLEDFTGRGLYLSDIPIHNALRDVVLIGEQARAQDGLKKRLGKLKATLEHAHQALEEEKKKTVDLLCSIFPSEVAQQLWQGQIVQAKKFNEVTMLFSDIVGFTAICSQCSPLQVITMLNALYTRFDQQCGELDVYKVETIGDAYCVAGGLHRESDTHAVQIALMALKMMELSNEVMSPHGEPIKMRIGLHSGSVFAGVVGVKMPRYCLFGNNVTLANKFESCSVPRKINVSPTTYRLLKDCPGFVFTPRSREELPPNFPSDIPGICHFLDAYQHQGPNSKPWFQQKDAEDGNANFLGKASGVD
# Assay: Action on recombinant guanylate cyclase reporter cell line
# Format: cell-based
# Details: representative MEC values
# Procedure: B-2. Action on Recombinant Guanylate Cyclase Reporter Cell Line
# The cellular action of the compounds according to the invention is determined on a recombinant guanylate cyclase reporter cell line, as described in F. Wunder et al., Anal. Biochem. 339, 104-112 (2005).
# Representative MEC values (MEC=minimal effective concentration) for the compounds according to the invention are shown in the following table: […]
row,MEC (minimal effective concentration),SMILES
1,0.065 µM,"Cc1nc2c(OCC3CCCCC3)cccn2c1C(=O)NCCCCCCCC(=O)O [Example 20, 8-({[8-(Cyclohexylmethoxy)-2-methylimidazo[1,2-a]pyridin-3-yl]carbonyl}amino)octanoic acid]"
2,1.0 µM,"COC(=O)CC(NC(=O)c1c(C)nc2c(OCc3c(F)cccc3F)cccn12)C(F)(F)F (racemic) [Example 17, rac-Methyl 3-[({8-[(2,6-difluorobenzyl)oxy]-2-methylimidazo[1,2-a]pyridin-3-yl}carbonyl)-amino]-4,4,4-trifluorobutanoate]"
3,0.3 µM,COC(=O)CCCCCCCNC(=O)c1c(C)nc2c(OCC3CCCCC3)cccn12 [Example 16]
4,0.1 µM,"COC(=O)[C@H]1CC[C@H](CNC(=O)c2c(C)nc3c(OCc4c(F)cccc4F)cc(C)cn23)CC1 [Example 24, Methyl trans-4-{[({8-[(2,6-difluorobenzyl)oxy]-2,6-dimethylimidazo[1,2-a]pyridin-3-yl}carbonyl)-amino]methyl}cyclohexanecarboxylate]"
5,0.3 µM,"CCCCC(NC(=O)c1c(C)nc2c(OCc3c(F)cccc3F)cccn12)C(=O)OC (single isomer, unassigned; enantiomer a) [Example 18, ent-Methyl N-({8-[(2,6-difluorobenzyl)oxy]-2-methylimidazo[1,2-a]pyridin-3-yl}carbonyl)-norleucinate (Enantiomer A)]"
6,1.0 µM,"Cc1cc(OCc2c(F)cccc2F)c2nc(C)c(C(=O)NC[C@H]3CC[C@H](C(=O)O)CC3)n2c1 [Example 25, trans-4-{[({8-[(2,6-Difluorobenzyl)oxy]-2,6-dimethylimidazo[1,2-a]pyridin-3-yl}carbonyl)amino]methyl}cyclohexanecarboxylic acid]"
7,0.3 µM,"Cc1nc2c(OCC3CCCCC3)cccn2c1C(=O)NCCCCCC(=O)O [Example 22, 6-({[8-(Cyclohexylmethoxy)-2-methylimidazo[1,2-a]pyridin-3-yl]carbonyl}amino)hexanoic acid]"
8,2.0 µM,"CCCC[C@H](NC(=O)c1c(C)nc2c(OCc3c(F)cccc3F)cccn12)C(=O)O [Example 23, N-({8-[(2,6-Difluorobenzyl)oxy]-2-methylimidazo[1,2-a]pyridin-3-yl}carbonyl)norleucine hydrochloride]"
9,0.1 µM,"Cc1nc2c(OCc3c(F)cccc3F)cccn2c1C(=O)NCCCCCCCC(=O)O [Example 21, 8-[({8-[(2,6-Difluorobenzyl)oxy]-2-methylimidazo[1,2-a]pyridin-3-yl}carbonyl)amino]octanoic acid]"
10,1.0 µM,"CCCCC(NC(=O)c1c(C)nc2c(OCc3c(F)cccc3F)cccn12)C(=O)OC (single isomer, unassigned; enantiomer b) [Example 19, ent-Methyl N-({8-[(2,6-difluorobenzyl)oxy]-2-methylimidazo[1,2-a]pyridin-3-yl}carbonyl)-norleucinate (Enantiomer B)]"

# Second part, the molecule before the results:
row,SMILES,MEC (minimal effective concentration)
1,"Cc1nc2c(OCc3c(F)cccc3F)cccn2c1C(=O)N[C@@H]1CCOC1=O [Example 3, 8-[(2,6-Difluorobenzyl)oxy]-2-methyl-N-[(3R)-2-oxotetrahydrofuran-3-yl]imidazo[1,2-a]pyridine-3-carboxamide]",0.3 µM
2,"COC(=O)C(CC(F)(F)F)NC(=O)c1c(C)nc2c(OCc3c(F)cccc3F)cccn12 (racemic) [Example 9, rac-Methyl 2-[({8-[(2,6-difluorobenzyl)oxy]-2-methylimidazo[1,2-a]pyridin-3-yl}carbonyl)amino]-4,4,4-trifluorobutanoate]",3.0 µM
3,"COC(=O)C(CCC(F)(F)F)NC(=O)c1c(C)nc2c(OCc3c(F)cccc3F)cccn12 (racemic) [Example 10, rac-Methyl N-({8-[(2,6-difluorobenzyl)oxy]-2-methylimidazo[1,2-a]pyridin-3-yl}carbonyl)-5,5,5-trifluoronorvalinate]",1.0 µM
4,"COC(=O)[C@@H](C)NC(=O)c1c(C)nc2c(OCc3c(F)cccc3F)cccn12 [Example 6, Methyl N-({8-[(2,6-difluorobenzyl)oxy]-2-methylimidazo[1,2-a]pyridin-3-yl}carbonyl)-D-alaninate]",3.0 µM
5,"COC(=O)C(CCCC(F)(F)F)NC(=O)c1c(C)nc2c(OCc3c(F)cccc3F)cc(Cl)cn12 (racemic) [Example 13, rac-Methyl N-({6-chloro-8-[(2,6-difluorobenzyl)oxy]-2-methylimidazo[1,2-a]pyridin-3-yl}carbonyl)-6,6,6-trifluoronorleucinate]",0.3 µM
6,"CCCCC(NC(=O)c1c(C)nc2c(OCc3c(F)cccc3F)cccn12)C(=O)OC (racemic) [Example 8, rac-Methyl N-({8-[(2,6-difluorobenzyl)oxy]-2-methylimidazo[1,2-a]pyridin-3-yl}carbonyl)norleucinate]",1.0 µM
7,"COC(=O)C(C)(C)NC(=O)c1c(C)nc2c(OCc3c(F)cccc3F)cccn12 [Example 5, Methyl N-({8-[(2,6-difluorobenzyl)oxy]-2-methylimidazo[1,2-a]pyridin-3-yl}carbonyl)-2-methylalaninate]",0.3 µM
8,"COC(=O)C(CCCC(F)(F)F)NC(=O)c1c(C)nc2c(OCc3c(F)cccc3F)cc(C)cn12 (racemic) [Example 12, rac-Methyl N-({8-[(2,6-difluorobenzyl)oxy]-2,6-dimethylimidazo[1,2-a]pyridin-3-yl}carbonyl)-6,6,6-trifluoronorleucinate]",0.3 µM
9,"COC(=O)C(NC(=O)c1c(C)nc2c(OCc3c(F)cccc3F)cccn12)c1ccc(F)cc1 (racemic) [Example 1, rac-Methyl [({8-[(2,6-difluorobenzyl)oxy]-2-methylimidazo[1,2-a]pyridin-3-yl}carbonyl)amino]-(4-fluorophenyl)acetate]",0.3 µM
10,"COC(=O)C(NC(=O)c1c(C)nc2c(OCc3c(F)cccc3F)cccn12)c1ccc(Cl)cc1 (racemic) [Example 2, rac-Methyl (4-chlorophenyl)[({8-[(2,6-difluorobenzyl)oxy]-2-methylimidazo[1,2-a]pyridin-3-yl}carbonyl)amino]acetate]",0.3 µM
11,"COC(=O)CCCCCCCNC(=O)c1c(C)nc2c(OCc3c(F)cccc3F)cccn12 [Example 15, Methyl 8-[({8-[(2,6-difluorobenzyl)oxy]-2-methylimidazo[1,2-a]pyridin-3-yl}carbonyl)amino]octanoate]",1.0 µM
12,"COC(=O)C(CCCC(F)(F)F)NC(=O)c1c(C)nc2c(OCc3c(F)ccc(F)c3F)cc(C)cn12 (racemic) [Example 14, rac-Methyl N-({2,6-dimethyl-8-[(2,3,6-trifluorobenzyl)oxy]imidazo[1,2-a]pyridin-3-yl}carbonyl)-6,6,6-trifluoronorleucinate]",0.3 µM
13,"COC(=O)C(CCCC(F)(F)F)NC(=O)c1c(C)nc2c(OCc3c(F)cccc3F)cccn12 (racemic) [Example 11, rac-Methyl N-({8-[(2,6-difluorobenzyl)oxy]-2-methylimidazo[1,2-a]pyridin-3-yl}carbonyl)-6,6,6-trifluoronorleucinate]",0.3 µM
14,"COC(=O)CCNC(=O)c1c(C)nc2c(OCc3c(F)cccc3F)cccn12 [Example 7, Methyl N-({8-[(2,6-difluorobenzyl)oxy]-2-methylimidazo[1,2-a]pyridin-3-yl}carbonyl)-beta-alaninate]",1.0 µM
15,"COC(=O)CC(C)NC(=O)c1c(C)nc2c(OCc3c(F)cccc3F)cccn12 (racemic) [Example 4, rac-Methyl 3-[({8-[(2,6-difluorobenzyl)oxy]-2-methylimidazo[1,2-a]pyridin-3-yl}carbonyl)amino]butanoate]",1.0 µM
